Measurements as given in patent US20260013501A1, “HERBICIDAL DERIVATIVES” (SYNGENTA CROP PROTECTION AG, priority 2022, published 2026).

What was measured:
Type in all cases: in vivo
[1] = test system: Ipomoea hederacea (IPOHE); assay: Pre-emergence Test (Table B1), IPOHE; conditions: evaluated after 13 days
[2] = test system: Zea mays (ZEAMX); assay: Pre-emergence Test (Table B1), ZEAMX; conditions: evaluated after 13 days
[3] = test system: Echinochloa crus-galli (ECHCG); assay: Pre-emergence Test (Table B1), ECHCG; conditions: evaluated after 13 days
[4] = test system: Amaranthus retoflexus (AMARE); assay: Post-emergence Test (Table B2), AMARE; set-up: key: five-point scale: 5=81-100%, 4=61-80%, 3=41-60%, 2=21-40%, 1=0-20% damage; conditions: evaluated after 13 days
Procedure: (§1) Seeds of a variety of test species are sown in standard soil in pots (Ipomoea hederacea (IPOHE), Zea mays (ZEAMX), Echinochloa crus-galli (ECHCG), Amaranthus palmeri (AMAPA), (Amaranthus retoflexus (AMARE), and (Setaria faberi (SETFA)). After 8 days cultivation under controlled conditions in a glasshouse (at 24° C./16° C., day/night; 14 hours light; 65% humidity), the plants are sprayed with an aqueous spray solution derived from the formulation of the technical active ingredient in acetone/water (50:50) solution containing 0.5% Tween 20 (polyoxyethelyene sorbitan monolaurate, CAS RN 9005-64-5). Rate of application is shown in g/ha in the tables below. The test plants are then grown in a glasshouse under controlled conditions in a glasshouse (at 24° C./16° C., day/night; 14 hours light; 65% humidity) and watered twice daily. After 13 days the test is evaluated for the percentage damage caused to the plant. The biological activities are shown in the following table on a five-point scale (5=81-100%; 4=61-80%; 3=41-60%; 2=21-40%; 1=0-20%; -=not tested).

[5] = test system: Amaranthus palmeri (AMAPA); assay: Pre-emergence Test (Table B1), AMAPA; conditions: evaluated after 13 days
[6] = test system: Amaranthus retoflexus (AMARE); assay: Pre-emergence Test (Table B1), AMARE; conditions: evaluated after 13 days
[7] = test system: Amaranthus palmeri (AMAPA); assay: Post-emergence Test (Table B2), AMAPA; set-up: key: five-point scale: 5=81-100%, 4=61-80%, 3=41-60%, 2=21-40%, 1=0-20% damage; conditions: rate 250 g/Ha, evaluated after 13 days
Procedure: as §1

[8] = test system: Zea mays (ZEAMX); assay: Post-emergence Test (Table B2), ZEAMX; set-up: key: 5-point damage scale: 5=81-100%, 4=61-80%, 3=41-60%, 2=21-40%, 1=0-20%; conditions: evaluated after 13 days
Procedure: as §1

[9] = test system: Echinochloa crus-galli (ECHCG); assay: Post-emergence Test (Table B2), ECHCG; set-up: key: 5-point damage scale: 5=81-100%, 4=61-80%, 3=41-60%, 2=21-40%, 1=0-20%; conditions: evaluated after 13 days
Procedure: as §1

CCn1c(Cc2ccccc2)cc(=O)c(C(=O)O)c1-c1ccc(Cl)c(Cl)c1 [Compound 3, 6-benzyl-2-(3,4-dichlorophenyl)-1-ethyl-4-oxo-pyridine-3-carboxylic acid]
0: Pre-emergence Test, percentage damage caused to the plant (five-point scale), IPOHE ([1]; Rate 1000 g/Ha) | Pre-emergence Test, percentage damage caused to the plant (five-point scale), ZEAMX ([2]; Rate 1000 g/Ha) | Pre-emergence Test, percentage damage caused to the plant (five-point scale), ECHCG ([3]; Rate 1000 g/Ha) | percentage damage caused to the plant, AMARE ([4]; rate 1000 g/Ha)

CCn1c(Cc2ccc(C(F)(F)F)cc2)cc(=O)c(C(=O)O)c1-c1ccc(Cl)c(Cl)c1 [Compound 6, 2-(3,4-dichlorophenyl)-1-ethyl-4-oxo-6-[[4-(trifluoromethyl)phenyl]methyl]pyridine-3-carboxylic acid]
0: Pre-emergence Test, percentage damage caused to the plant (five-point scale), IPOHE ([1]; Rate 1000 g/Ha) | Pre-emergence Test, percentage damage caused to the plant (five-point scale), ZEAMX ([2]; Rate 1000 g/Ha) | Pre-emergence Test, percentage damage caused to the plant (five-point scale), ECHCG ([3]; Rate 1000 g/Ha)

CCn1c(Cc2nccc(OC)n2)cc(=O)c(C(=O)O)c1-c1ccc(Cl)c(Cl)c1 [Compound 20, 2-(3,4-dichlorophenyl)-1-ethyl-6-[(4-methoxypyrimidin-2-yl)methyl]-4-oxo-pyridine-3-carboxylic acid]
0: Pre-emergence Test, percentage damage caused to the plant (five-point scale), ZEAMX ([2]; Rate 250 g/Ha) | Pre-emergence Test, percentage damage caused to the plant (five-point scale), ECHCG ([3]; Rate 250 g/Ha) | Pre-emergence Test, percentage damage caused to the plant (five-point scale), AMAPA ([5]; Rate 250 g/Ha) | Pre-emergence Test, percentage damage caused to the plant (five-point scale), AMARE ([6]; Rate 250 g/Ha)

CCn1c(Cc2ccnc(C(F)(F)F)c2)cc(=O)c(C(=O)O)c1-c1ccc(Cl)c(Cl)c1 [Compound 21, 2-(3,4-dichlorophenyl)-1-ethyl-4-oxo-6-[[2-(trifluoromethyl)-4-pyridyl]methyl]pyridine-3-carboxylic acid]
0: percentage damage caused to the plant, AMAPA [7] | percentage damage caused to the plant, AMARE ([4]; rate 250 g/Ha)

CCn1c(Cc2ncccn2)cc(=O)c(C(=O)O)c1-c1ccc(Cl)c(Cl)c1 [Compound 22, 2-(3,4-dichlorophenyl)-1-ethyl-4-oxo-6-(pyrimidin-2-ylmethyl)pyridine-3-carboxylic acid]
0: Pre-emergence Test, percentage damage caused to the plant (five-point scale), ZEAMX ([2]; Rate 250 g/Ha) | Pre-emergence Test, percentage damage caused to the plant (five-point scale), ECHCG ([3]; Rate 250 g/Ha) | Pre-emergence Test, percentage damage caused to the plant (five-point scale), AMAPA ([5]; Rate 250 g/Ha) | Pre-emergence Test, percentage damage caused to the plant (five-point scale), AMARE ([6]; Rate 250 g/Ha)

CCn1c(Cc2ccc(OC(F)(F)F)cc2)cc(=O)c(C(=O)O)c1-c1ccc(Cl)c(Cl)c1 [Compound 26, 2-(3,4-dichlorophenyl)-1-ethyl-4-oxo-6-[[4-(trifluoromethoxy)phe-nyl]methyl]pyridine-3-carboxylic acid]
0: percentage damage caused to the plant, ZEAMX ([8]; rate 1000 g/Ha) | percentage damage caused to the plant, ECHCG ([9]; rate 1000 g/Ha)

CCn1c(Cc2ccc(OC)nc2)cc(=O)c(C(=O)O)c1-c1ccc(Cl)c(Cl)c1 [Compound 40, 2-(3,4-dichlorophenyl)-1-ethyl-6-[(6-methoxy-3-pyridyl)methyl]-4-oxo-pyridine-3-carboxylic acid]
0: Pre-emergence Test, percentage damage caused to the plant (five-point scale), IPOHE ([1]; Rate 250 g/Ha) | Pre-emergence Test, percentage damage caused to the plant (five-point scale), ZEAMX ([2]; Rate 250 g/Ha) | Pre-emergence Test, percentage damage caused to the plant (five-point scale), ECHCG ([3]; Rate 250 g/Ha) | percentage damage caused to the plant, ECHCG ([9]; rate 250 g/Ha)

CCn1c(Cc2cncc(Cl)n2)cc(=O)c(C(=O)O)c1-c1ccc(Cl)c(Cl)c1 [Compound 43, 6-[(6-chloropyrazin-2-yl)methyl]-2-(3,4-dichlorophenyl)-1-ethyl-4-oxo-pyridine-3-carboxylic acid]
0: Pre-emergence Test, percentage damage caused to the plant (five-point scale), ZEAMX ([2]; Rate 250 g/Ha) | Pre-emergence Test, percentage damage caused to the plant (five-point scale), AMAPA ([5]; Rate 250 g/Ha) | percentage damage caused to the plant, AMAPA [7]

CCn1c(Cc2cc(=O)[nH]cn2)cc(=O)c(C(=O)O)c1-c1ccc(Cl)c(Cl)c1 [Compound 45, 2-(3,4-dichlorophenyl)-1-ethyl-4-oxo-6-[(6-oxo-1H-pyrimidin-4-yl)methyl]pyridine-3-carboxylic acid]
0: Pre-emergence Test, percentage damage caused to the plant (five-point scale), ZEAMX ([2]; Rate 250 g/Ha) | Pre-emergence Test, percentage damage caused to the plant (five-point scale), ECHCG ([3]; Rate 250 g/Ha) | Pre-emergence Test, percentage damage caused to the plant (five-point scale), AMAPA ([5]; Rate 250 g/Ha) | Pre-emergence Test, percentage damage caused to the plant (five-point scale), AMARE ([6]; Rate 250 g/Ha) | percentage damage caused to the plant, ECHCG ([9]; rate 250 g/Ha)

CCn1c(Cc2ccc(C(=O)OC)cn2)cc(=O)c(C(=O)O)c1-c1ccc(Cl)c(Cl)c1 [Compound 46, 2-(3,4-dichlorophenyl)-1-ethyl-6-[(5-methoxycarbonyl-2-pyridyl)methyl]-4-oxo-pyridine-3-carboxylic acid]
0: Pre-emergence Test, percentage damage caused to the plant (five-point scale), ZEAMX ([2]; Rate 250 g/Ha) | percentage damage caused to the plant, ECHCG ([9]; rate 250 g/Ha)

CCn1c(Cc2ccc(S(C)(=O)=O)cc2)cc(=O)c(C(=O)O)c1-c1ccc(Cl)c(Cl)c1 [Compound 72, 2-(3,4-dichlorophenyl)-1-ethyl-6-[(4-methylsulfonylphenyl)methyl]-4-oxo-pyridine-3-carboxylic acid]
0: Pre-emergence Test, percentage damage caused to the plant (five-point scale), IPOHE ([1]; Rate 250 g/Ha) | Pre-emergence Test, percentage damage caused to the plant (five-point scale), ECHCG ([3]; Rate 250 g/Ha) | percentage damage caused to the plant, ZEAMX ([8]; rate 250 g/Ha) | percentage damage caused to the plant, ECHCG ([9]; rate 250 g/Ha)

CCn1c(Cc2cc(OC)ccc2F)cc(=O)c(C(=O)O)c1-c1ccc(Cl)c(Cl)c1 [Compound 90, 2-(3,4-dichlorophenyl)-1-ethyl-6-[(2-fluoro-5-methoxy-phenyl)methyl]-4-oxo-pyridine-3-carboxylic acid]
0: Pre-emergence Test, percentage damage caused to the plant (five-point scale), ZEAMX ([2]; Rate 1000 g/Ha) | Pre-emergence Test, percentage damage caused to the plant (five-point scale), AMAPA ([5]; Rate 1000 g/Ha) | Pre-emergence Test, percentage damage caused to the plant (five-point scale), AMARE ([6]; Rate 1000 g/Ha) | percentage damage caused to the plant, ZEAMX ([8]; rate 1000 g/Ha) | percentage damage caused to the plant, ECHCG ([9]; rate 1000 g/Ha)

CCn1c(Cc2ncc(SC)cn2)cc(=O)c(C(=O)O)c1-c1ccc(Cl)c(Cl)c1 [Compound 99, 2-(3,4-dichlorophenyl)-1-ethyl-6-[(5-methylsulfanylpyrimidin-2-yl)methyl]-4-oxo-pyridine-3-carboxylic acid]
0: Pre-emergence Test, percentage damage caused to the plant (five-point scale), IPOHE ([1]; Rate 250 g/Ha) | Pre-emergence Test, percentage damage caused to the plant (five-point scale), ZEAMX ([2]; Rate 250 g/Ha) | Pre-emergence Test, percentage damage caused to the plant (five-point scale), ECHCG ([3]; Rate 250 g/Ha)

CCn1c(Cc2ccc(C#N)c(F)n2)cc(=O)c(C(=O)O)c1-c1ccc(Cl)c(Cl)c1 [Compound 112, 6-[(5-cyano-6-fluoro-2-pyridyl)methyl]-2-(3,4-dichlorophenyl)-1-ethyl-4-oxo-pyridine-3-carboxylic acid]
0: Pre-emergence Test, percentage damage caused to the plant (five-point scale), IPOHE ([1]; Rate 62.5 g/Ha) | Pre-emergence Test, percentage damage caused to the plant (five-point scale), ZEAMX ([2]; Rate 62.5 g/Ha) | Pre-emergence Test, percentage damage caused to the plant (five-point scale), ECHCG ([3]; Rate 62.5 g/Ha) | Pre-emergence Test, percentage damage caused to the plant (five-point scale), AMAPA ([5]; Rate 62.5 g/Ha) | Pre-emergence Test, percentage damage caused to the plant (five-point scale), AMARE ([6]; Rate 62.5 g/Ha)

CCn1c(Cc2cccc(C(C)=O)n2)cc(=O)c(C(=O)O)c1-c1ccc(Cl)c(Cl)c1 [Compound 116, 6-[(6-acetyl-2-pyridyl)methyl]-2-(3,4-dichlorophenyl)-1-ethyl-4-oxo-pyridine-3-carboxylic acid]
0: Pre-emergence Test, percentage damage caused to the plant (five-point scale), IPOHE ([1]; Rate 250 g/Ha) | percentage damage caused to the plant, AMAPA [7]

CCn1c(Cc2nc(OC)cc(OC)n2)cc(=O)c(C(=O)O)c1-c1ccc(Cl)c(Cl)c1 [Compound 126, 2-(3,4-dichlorophenyl)-6-[(4,6-dimethoxypyrimidin-2-yl)methyl]-1-ethyl-4-oxo-pyridine-3-carboxylic acid]
0: Pre-emergence Test, percentage damage caused to the plant (five-point scale), ZEAMX ([2]; Rate 250 g/Ha) | percentage damage caused to the plant, AMAPA [7] | percentage damage caused to the plant, AMARE ([4]; rate 250 g/Ha)

CCn1c(Cc2nc(C(=O)OC)co2)cc(=O)c(C(=O)O)c1-c1ccc(Cl)c(Cl)c1 [Compound 148, 2-(3,4-dichlorophenyl)-1-ethyl-6-[(4-methoxycarbonyloxazol-2-yl)methyl]-4-oxo-pyridine-3-carboxylic acid]
0: Pre-emergence Test, percentage damage caused to the plant (five-point scale), IPOHE ([1]; Rate 250 g/Ha) | Pre-emergence Test, percentage damage caused to the plant (five-point scale), ZEAMX ([2]; Rate 250 g/Ha) | Pre-emergence Test, percentage damage caused to the plant (five-point scale), ECHCG ([3]; Rate 250 g/Ha) | percentage damage caused to the plant, ZEAMX ([8]; rate 250 g/Ha) | percentage damage caused to the plant, AMAPA [7]

CCn1c(Cc2cnc(C3CC3)nc2)cc(=O)c(C(=O)O)c1-c1ccc(Cl)c(Cl)c1 [Compound 151, 6-[(2-cyclopropylpyrimidin-5-yl)methyl]-2-(3,4-dichlorophenyl)-1-ethyl-4-oxo-pyridine-3-carboxylic acid]
0: Pre-emergence Test, percentage damage caused to the plant (five-point scale), IPOHE ([1]; Rate 250 g/Ha) | Pre-emergence Test, percentage damage caused to the plant (five-point scale), ZEAMX ([2]; Rate 250 g/Ha) | Pre-emergence Test, percentage damage caused to the plant (five-point scale), ECHCG ([3]; Rate 250 g/Ha) | percentage damage caused to the plant, ZEAMX ([8]; rate 250 g/Ha) | percentage damage caused to the plant, AMAPA [7]
